Experimental data: article PMC10313921, “A living ex vivo platform for functional, personalized brain cancer diagnosis” (Cell Reports Medicine, 2023)

Columns and labels:
Assay type in all cases: cell-based, human
[1] = test system: U373KO (RAD18 knockout of U373WT via CRISPR); test: Drug screening of U373KO tumor foci on OBSCs; settings: U373 KO on OBSCs
How it was run: (§1)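 Bioluminescence viability readout, 3 d post-treatment, normalized to day-1 tumor fluorescence vs untreated; 6 drug concentrations or XRad, n = 4 foci per concentration. Drug sensitivity score sums weighted parameters comparing tumor kill with OBSC toxicity, ranging −100 to 100.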

[2] = test system: PGBM-R patient tumor tissue (recurrent tumor from same patient as PGBM); test: Drug screening of uncultured patient tumor tissue PGBM-R on OBSCs
Protocol: (§2) Tumor cells were seeded onto OBSCs 2h after slicing as described above. One day after tumor seeding, six concentrations of each drug were diluted in the media underneath each culture insert, or XRad was applied using an X-Rad 320 Precision X-ray machine (n = 4 tumor foci per concentration; n ≥ 24 tumor foci per drug per cell line). Three days after treatment, the bioluminescence of live tumor cells was measured using an AMI optical imager (Spectral Instruments) and dose-response curves were generated. Tumor survival was normalized to day one tumor fluorescence and compared to an untreated control group.
(§3) To engraft onto OBSCs, the cryopreserved/thawed or fresh brain tumor tissue was filtered through a 100 μm cell strainer. Each 50 mg of tissue was transfected with 1mL mcherry-FLuc Lentivirus at 1.5e7 vg/ml with 1μL polybrene for 4h at 37°C. After incubation, the brain tumor tissue was washed with PBS three times to remove the residual virus and reconstituted in PBS with a final volume of 150 μL. Then the tissue solution was engrafted atop OBSCs at ∼0.5 mg tissue in 3 μL of PBS on each hemisphere of the slice. The OBSC engrafted with patient tumor tissue was incubated at 37°C with 5% CO2 and 95% humidity. The BSM was changed after 24h and subsequently every 3 days. Tumor treatment studies were executed as described above for tumor lines. The viability of the patient tissue was measured by an AMI optical imaging system with the addition of 1.5 mg/mL luciferin underneath the culture insert.
(§4) Several weighted parameters were factored into an overall drug sensitivity score.
(§5) For DSS parameters 1–6, therapeutic windows were calculated by comparing OBSC toxicity and tumor response at the doses where tumor kill passed through the DSS parameter (Table S1 and S3). For DSS parameter 7, the therapeutic window was calculated by comparing the slopes through the tumor EC50 and the OBSC tox EC50. For DSS parameter 8, the therapeutic window was calculated by comparing the areas under tumor kill and OBSC tox curves. Normalized therapeutic window ratios for DSS parameters 1–8 within each drug-tumor-OBSC interaction were calculated in the following manner: within each window, values ranged from +1 to −1, where values approaching +1 signify increasing tumor kill relative to normal tissue toxicity, and values approaching −1 indicate agents where tumors remained highly viable while toxicity to the normal OBSC tissue was elevated. DSS parameters 9–11 were determined based on the behavior of the tumor in response to the drug, as defined above.
(§6) All individually weighed parameters were added together to generate the DSS. Overall DSS from 0 to 100 signify increasing efficacy in tumor kill relative to OBSC toxicity, while scores from 0 to −100 describe scenarios in which tumors thrive more effectively than OBSCs for a given treatment. Dose-response values were calculated via linear interpolation of raw data, not from best-fit curve equations.

[3] = test system: LN229 (established GBM line); test: Drug screening of LN229 tumor foci on OBSCs
How it was run: as §1

[4] = test system: PIS patient tumor tissue (intracranial sarcoma); test: Drug screening of uncultured patient tumor tissue PIS on OBSCs; settings: Homo sapiens, PIS on OBSCs
How it was run: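 Uncultured patient tumour tissue, transduced with mCherry-FLuc lentivirus, engrafted on organotypic brain slice cultures (OBSCs); six drug concentrations or X-ray dosing given one day after seeding, n = 4 foci per concentration. Bioluminescence with luciferin read three days post-treatment, normalised to day one and untreated controls; drug sensitivity score combines weighted therapeutic-window parameters versus OBSC toxicity (−100 to 100).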

[5] = test system: GBM8 (high-passage patient-derived GBM line); test: Drug screening of GBM8 tumor foci on OBSCs; settings: GBM8 on OBSCs
How it was run: as §1

[6] = test system: MS21 (low-passage patient-derived GBM line); test: Drug screening of MS21 tumor foci on OBSCs; settings: MS21 on OBSCs
How it was run: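 Drug effects on tumor foci grown on brain slices are quantified by bioluminescence three days after treatment, relative to untreated foci and day-one fluorescence. Efficacy versus slice toxicity is combined into a weighted drug sensitivity score.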

[7] = test system: U373WT (wild-type established GBM line); test: Drug screening of U373WT tumor foci on OBSCs; settings: U373 WT on OBSCs
How it was run: as §1

[8] = test system: 7 cell lines (MB231Br, LN229, U373WT, U373KO, GBM8, MS21, PDIPG); test: Drug screening on OBSCs, summary over the panel of seven tumor lines
How it was run: as §1

[9] = test system: MB231Br (breast cancer metastasis to brain); test: Drug screening of MB231Br tumor foci on OBSCs
[10] = test system: PDIPG (low-passage pediatric patient-derived line); test: Drug screening of PDIPG tumor foci on OBSCs; settings: PDIPG on OBSCs
How it was run: as §1

[11] = test system: PGBM patient tumor tissue (pediatric GBM); test: Drug screening of uncultured patient tumor tissue PGBM on OBSCs
Protocol: as §2, §3, §4, §5, §6

[12] = Homo sapiens, U373 MG, dose required to kill 50% of the tumor
[13] = Homo sapiens, U373 MG, dose required to kill 90% of the tumor
[14] = Homo sapiens, U373 MG, dosed day 1, survival via bioluminescence day 4, linear interpolation
[15] = area under the dose-response curve, trapezoidal rule
[16] = dose required to kill 10% of the tumor
[17] = dose required to kill 25% of the tumor
[18] = dose required to kill 75% of the tumor
[19] = Homo sapiens, dose required to kill 90% of the tumor, read-out: EC90
[20] = Homo sapiens, dosed day 1, survival via bioluminescence day 4, linear interpolation, read-out: IC50

SMILES: Cn1nnc2c(C(N)=O)ncn2c1=O [Temozolomide]
- EC50 [1, 12]: 1160 µM
- EC90 [1, 13]: > 10 µM
- IC50 [1, 14]: 1160 µM
- Killing at highest dose [1]: 5.40E-01 fraction of tumor population killed
- AUC [1, 15]: 8.89E+02
- EC10 [1, 16]: 3.85 µM
- EC25 [1, 17]: 9.62 µM
- Slope ([1]; slope through the EC50): -8.67E-04
- EC90 ([2]; Homo sapiens, PGBM-R on OBSCs, dose required to kill 90% of the tumor): > 10 µM
- DSS (drug sensitivity score) ([2]; PGBM-R patient tissue, scale -100 to +100): 17
- Killing at highest dose [3]: 3.50E-01 fraction of tumor population killed
- EC50 ([3]; Homo sapiens, LN-229, dose required to kill 50% of the tumor): > 10 µM
- EC90 ([3]; Homo sapiens, LN-229, dose required to kill 90% of the tumor): > 10 µM
- IC50 ([3]; Homo sapiens, LN-229, dosed day 1, survival via bioluminescence day 4, linear interpolation): > 10 µM
- AUC [3, 15]: 1.53E+03
- EC10 [3, 16]: 59.4 µM
- EC25 [3, 17]: 460 µM
- Slope ([3]; slope through the EC50): -4.00E-05
- EC50 ([4]; dose required to kill 50% of the tumor): > 100 µM
- EC90 ([4]; dose required to kill 90% of the tumor): > 10 µM
- Killing at highest dose [5]: 1.00E+00 fraction of tumor population killed
- AUC [5, 15]: 9.52E+01
- EC10 [5, 16]: 1.52 µM
- EC25 [5, 17]: 3.79 µM
- EC75 [5, 18]: 31.2 µM
- Slope ([5]; slope through the EC50): -6.60E-02
- EC50 ([5]; Homo sapiens, dose required to kill 50% of the tumor, read-out: EC50): 7.58 µM
- EC90 [5, 19]: 167 µM
- IC50 [5, 20]: 7.6 µM
- Killing at highest dose [6]: -8.20E-01 fraction of tumor population killed
- AUC [6, 15]: 2.37E+03
- EC25 [6, 17]: 417 µM
- EC75 [6, 18]: 1250 µM
- Slope ([6]; slope through the EC50): 5.47E-04
- EC50 [7, 12]: > 10 µM
- EC90 [7, 13]: > 10 µM
- IC50 [7, 14]: > 10 µM
- Killing at highest dose [7]: 2.20E-01 fraction of tumor population killed
- AUC [7, 15]: 1.52E+03
- EC10 [7, 16]: 67.3 µM
- EC25 [7, 17]: 96.2 µM
- Slope ([7]; slope through the EC50): -9.14E-06
- DSS scores, range among tumors [8]: −62 to 96
- EC50 ([9]; Homo sapiens, MB231BR on OBSCs, dose required to kill 50% of the tumor): > 10 µM
- EC90 ([9]; Homo sapiens, MB231BR on OBSCs, dose required to kill 90% of the tumor): > 10 µM
- IC50 ([9]; Homo sapiens, MB231Br on OBSCs, dosed day 1, survival via bioluminescence day 4, linear interpolation): > 10 µM
- Killing at highest dose ([9]; MB231BR on OBSCs): -3.30E-01 fraction of tumor population killed
- AUC ([9]; MB231BR on OBSCs, area under the dose-response curve, trapezoidal rule): 2.58E+03
- EC90 [10, 19]: > 10 µM
- IC50 [10, 20]: > 10 µM
- Killing at highest dose [10]: 2.90E-01 fraction of tumor population killed
- AUC [10, 15]: 1.88E+03
- EC10 [10, 16]: 5 µM
- EC25 [10, 17]: 667 µM
- Slope ([10]; slope through the EC50): -4.80E-05
- EC50 ([11]; Homo sapiens, PGBM on OBSCs, dose required to kill 50% of the tumor): > 100 µM
- EC90 ([11]; Homo sapiens, PGBM on OBSCs, dose required to kill 90% of the tumor): > 10 µM
- DSS (drug sensitivity score) ([11]; PGBM patient tissue, scale -100 to +100): 26
